Experimental data taken from the CheMixHub viscosity set.
± gives the uncertainty stated by the source.

Assay: xn = mol fraction of the nth substance listed

CCCCCCCCCCCCc1ccccc1S(=O)(=O)[O-].[Na+] + O
viscosity [mPa·s], 101 kPa
Conditions	x1 = 5e-06	x1 = 1e-05	x1 = 2e-05	x1 = 2.2e-05	x1 = 2.7e-05	x1 = 3.2e-05	x1 = 3.8e-05	x1 = 4.3e-05	x1 = 4.9e-05	x1 = 5.4e-05
293.15 K	0.9811 ± 0.059	0.9821 ± 0.059	0.9837 ± 0.06	0.9859 ± 0.06	0.9881 ± 0.06	0.9903 ± 0.06	0.9919 ± 0.06	0.9944 ± 0.06	0.9974 ± 0.06	1.001 ± 0.061
298.15 K	0.8497 ± 0.051	0.8508 ± 0.051	0.8522 ± 0.052	0.8544 ± 0.052	0.8558 ± 0.052	0.857 ± 0.052	0.8582 ± 0.052	0.86 ± 0.052	0.8614 ± 0.052	0.864 ± 0.052
303.15 K	0.7683 ± 0.046	0.7687 ± 0.046	0.77 ± 0.046	0.7718 ± 0.047	0.7744 ± 0.047	0.7763 ± 0.047	0.7812 ± 0.047	0.7864 ± 0.048	0.796 ± 0.048	0.7988 ± 0.048
308.15 K	0.6924 ± 0.042	0.6932 ± 0.042	0.6943 ± 0.042	0.6958 ± 0.042	0.6979 ± 0.042	0.7013 ± 0.042	0.7051 ± 0.043	0.7074 ± 0.043	0.7106 ± 0.043	0.7123 ± 0.043
313.15 K	0.6075 ± 0.037	0.609 ± 0.037	0.6102 ± 0.037	0.6121 ± 0.037	0.6138 ± 0.037	0.6167 ± 0.037	0.6203 ± 0.038	0.623 ± 0.038	0.6242 ± 0.038	0.6262 ± 0.038

NCC(=O)N[C@@H](CCC(N)=O)C(=O)O + O
298.15 K, 101 kPa
Conditions	viscosity [mPa·s]
x1 = 0.001798	0.937 ± 0.006
x1 = 0.002695	0.96 ± 0.006

NNC(=O)c1ccncc1 + O
viscosity [mPa·s]
Conditions	298.15 K	303.15 K	308.15 K	313.15 K
100 kPa, x1 = 0.00051	–	–	0.7216 ± 0.12	–
100 kPa, x1 = 0.000801	–	0.8033 ± 0.12	0.724 ± 0.12	–
100 kPa, x1 = 0.00109	0.9009 ± 0.12	0.8061 ± 0.12	0.7263 ± 0.12	0.6588 ± 0.12
100 kPa, x1 = 0.00153	0.9061 ± 0.12	0.8104 ± 0.12	0.7299 ± 0.12	0.6617 ± 0.12
101 kPa, x1 = 0.003	0.9182 ± 0.019	–	0.7383 ± 0.016	–

[Cl-].[Cl-].[Cu+2] + O
viscosity [mPa·s]
Conditions	x1 = 0.000905	x1 = 0.00112	x1 = 0.002247	x1 = 0.002718	x1 = 0.004484	x1 = 0.00453	x1 = 0.006344	x1 = 0.008159	x1 = 0.008927	x1 = 0.0177
308.15 K, 101.3 kPa	–	0.739 ± 0.019	0.7708 ± 0.02	–	0.8088 ± 0.021	–	–	–	0.879 ± 0.023	0.9692 ± 0.025
308.15 K, 101.33 kPa	0.7395 ± 0.014	–	–	0.7712 ± 0.015	–	0.8092 ± 0.015	0.8409 ± 0.016	0.879 ± 0.016	–	–
313.15 K, 101.3 kPa	–	0.6675 ± 0.018	0.697 ± 0.018	–	0.7375 ± 0.019	–	–	–	0.794 ± 0.021	0.8595 ± 0.022
313.15 K, 101.33 kPa	0.668 ± 0.013	–	–	0.6975 ± 0.013	–	0.738 ± 0.014	0.762 ± 0.014	0.7945 ± 0.015	–	–
323.15 K, 101.3 kPa	–	0.577 ± 0.016	0.601 ± 0.016	–	0.637 ± 0.017	–	–	–	0.6967 ± 0.018	0.7595 ± 0.02
323.15 K, 101.33 kPa	0.5775 ± 0.011	–	–	0.6015 ± 0.012	–	0.6375 ± 0.012	0.6685 ± 0.013	0.6972 ± 0.013	–	–

ClC(Cl)(Cl)Cl + O=C1CCCCC1
298.15 K, 101 kPa
Conditions	viscosity [mPa·s]
x2 = 0.0951	1.017 ± 0.017
x2 = 0.2086	1.109 ± 0.019
x2 = 0.3074	1.193 ± 0.02
x2 = 0.4109	1.289 ± 0.021
x2 = 0.5072	1.381 ± 0.023
x2 = 0.6004	1.476 ± 0.024
x2 = 0.7013	1.577 ± 0.026
x2 = 0.8072	1.669 ± 0.027
x2 = 0.9023	1.754 ± 0.029

Cc1ccccc1C(=O)O + O=C1CCCCCN1
101 kPa, x2 = 0.67
Conditions	viscosity [mPa·s]
303.2 K	108.3 ± 3.1
313.1 K	58.33 ± 0.88
323.1 K	34.26 ± 0.5

O=C1CCCCCN1 + O=C(O)c1ccccc1
101 kPa, x1 = 0.5
Conditions	viscosity [mPa·s]
303.2 K	104.2 ± 2.9
313.1 K	48.15 ± 0.9
323.1 K	27.31 ± 0.4

CCCOC(C)=O + O=S1(=O)CCCC1
101 kPa
Conditions	viscosity [mPa·s]
303.15 K, x1 = 0.0177	9.305 ± 0.074
308.15 K, x2 = 0.6489	2.375 ± 0.021
313.15 K, x2 = 0.7639	3.185 ± 0.028

ClC(Cl)(Cl)Cl + O=S1(=O)CCCC1
viscosity [mPa·s], 101.33 kPa
Conditions	303.15 K	313.15 K	323.15 K
x2 = 0.066	1.002 ± 0.005	0.8675 ± 0.0043	0.7607 ± 0.0038
x2 = 0.1374	1.243 ± 0.0062	1.062 ± 0.0053	0.9177 ± 0.0046
x2 = 0.2048	1.532 ± 0.0077	1.286 ± 0.0065	1.098 ± 0.0055
x2 = 0.3138	2.043 ± 0.01	1.691 ± 0.0085	1.425 ± 0.0072
x2 = 0.3838	2.392 ± 0.012	1.974 ± 0.01	1.658 ± 0.0084
x2 = 0.4188	2.589 ± 0.013	2.133 ± 0.011	1.79 ± 0.0091
x2 = 0.4879	3.046 ± 0.016	2.498 ± 0.013	2.082 ± 0.011
x2 = 0.5667	3.682 ± 0.019	2.982 ± 0.015	2.47 ± 0.013
x2 = 0.6334	4.338 ± 0.022	3.481 ± 0.018	2.855 ± 0.015
x2 = 0.705	5.162 ± 0.026	4.107 ± 0.021	3.348 ± 0.017
x2 = 0.7743	6.124 ± 0.031	4.817 ± 0.024	3.9 ± 0.02
x2 = 0.8473	7.286 ± 0.037	5.711 ± 0.029	4.571 ± 0.023
x2 = 0.8955	8.168 ± 0.041	6.367 ± 0.032	5.053 ± 0.025

ClC(Cl)(Cl)Cl + O=[N+]([O-])c1ccccc1
101 kPa
Conditions	viscosity [mPa·s]
298.15 K, x1 = 0.17	1.613 ± 0.11
298.15 K, x1 = 0.35	1.411 ± 0.1
298.15 K, x1 = 0.55	1.224 ± 0.089
298.15 K, x1 = 0.76	1.099 ± 0.081
303.15 K, x2 = 0.0951	0.8421 ± 0.0061
303.15 K, x2 = 0.1913	0.8672 ± 0.0063
303.15 K, x2 = 0.2891	0.8934 ± 0.0065
303.15 K, x2 = 0.3875	0.9219 ± 0.0067
303.15 K, x2 = 0.4865	0.9908 ± 0.0072
303.15 K, x2 = 0.5871	1.059 ± 0.0076
303.15 K, x2 = 0.6886	1.159 ± 0.0083
303.15 K, x2 = 0.7915	1.25 ± 0.009
303.15 K, x2 = 0.8947	1.436 ± 0.01
